Consider one compound from patent EP4755396A1, “TREATMENT OF P53 GENE MUTATION OR DEFECT NEGATIVE CANCER AND TUMOR PATIENTS” (Ascentawits Pharmaceuticals, Ltd., priority 2023, dated 2025).

The structures appear in SMILES notation.

The subject of experiment [1] is H460 cells. Nature of the experiment: In vitro cell proliferation inhibition under normoxia (96-well, CTG, 72 hours). Type of experiment: cell-based, human. The conditions noted are these: for IC50: Homo sapiens, NCI-H460, 72 h, 72 hours. As to the method:
Overview of the experimental process • 1) H460 cell suspension was added to a 96-well plate at 100 µL per well, with a cell density of 2000 /well. • 2) The cells were cultured overnight in an incubator at 37°C, 5% CO2. • 3) Compound Treatment
Monotherapy: After 24 hours of cell plating, each well was supplied with 99.5 µL of growth medium then added with 0.5µL of test compounds at different concentrations, shaken gently to ensure even mixing, and then placed at 37°C, 5% CO2 in an incubator.
Combination therapy: After 24 hours of cell plating, each well was supplied with 99 µL of growth medium then added with 0.5µL of the combined action compound Nutlin-3, shaken gently to ensure even mixing, and then placed in an incubator for 2 hours. Then each well was added with 0.5µL of test compounds at different concentrations, shaken gently to ensure even mixing, and then placed at 37°C, 5% CO2 in an incubator.
(§1) 4) The cell plate was placed in the incubator for 72 hours.
(§2) 5) The cell plate to be tested was placed at room temperature to equilibrium for 30 minutes, and 100µL of medium was discarded per well.
(§3) 6) 25µL of CTG reagent was added to each well, placed at a fast shaker to shake for 2 minutes, and placed at room temperature away from light for 30 minutes.
(§4) 7) The chemiluminescence signal value was read using a multifunctional microplate reader with a reading time of 1000 ms.
8) IC50 was calculated with Graph Pad Prism 5 software.
• 1) H460 and HPAF-II cell suspensions were added to a 96-well plate at 100 µL per well, with a cell density of 2000 /well and 20000/well, respectively. • 2) The cells were cultured overnight in an incubator at 37°C, 5% CO2. • 3) Compound Treatment
Combination therapy: After 24 hours of cell plating, 99 µL of growth medium was supplied to each well. Each well was added with 0.5 µL of Nutlin-3 or RITA, shaken gently to ensure even mixing, and then placed in an incubator for 2 hours. Then each well was added with 0.5µL of test compounds at different concentrations, shaken gently to ensure even mixing, and then placed at 37°C, 5% CO2 in an incubator.
(§5) Monotherapy: After 24 hours of cell plating, 99.5 µL of growth medium was supplied to each well. Then each well was added with 0.5µL of test compounds at different concentrations, shaken gently to ensure even mixing, and then placed at 37°C, 5% CO2 in an incubator.
7) The chemiluminescence signal value was read using a multifunctional microplate reader with a reading time of 1000 ms. The corresponding inhibition rate data were calculated.
(§6) • 1) NCI-H460, NCI-H460 P53KO # 1 cell suspensions were added to a 96-well plate at 100 µL per well, with a cell density of 2000 /well. • 2) The cells were cultured overnight in an incubator at 37°C, 5% CO2. • 3) Compound Treatment
(§7) Combination therapy: After 24 hours of cell plating, 99 µL of medium was supplied to each well. Each well was added with 0.5µL of combined action compound, shaken gently to ensure even mixing, and then placed in an incubator for 2 hours. Then each well was added with 0.5µL of test compounds at different concentrations, shaken gently to ensure even mixing, and then placed at 37°C, 5% CO2 in an incubator.
(§8) 8) The ICso (half maximal inhibitory concentration) values were calculated using GraphPad Prism 5 software.

The next experiment concerns H460 P53 KO #1. Nature of the experiment: In vitro cell proliferation inhibition under normoxia, p53 knockout cells. The experiment is classed as cell-based, human. The conditions noted are these: Homo sapiens, NCI-H460, 72 h, 72 hours. As to the method:
(§9) The p53 CRISPR/Cas9 KO plasmid (human) and p53 HDR plasmid (human) were purchased from Santa Cruz Company to construct H460 P53 KO cell lines, namely p53 knockout (KnockOut) H460 cell lines. Three groups of H460 P53 KO cell lines were constructed with numbers of H460 P53 KO # 1, H460 P53 KO # 7, and H460 P53 KO # 12.
(§10) After co-incubation for 15 minutes, they were added dropwise to the culture medium and mixed well.
(§11) After 48 h, 2 µg/mL puromycin was added for screening.
(§12) When the cell colonies grew to a sufficient size, single colonies were picked and cultured.
(§13) When the cell number reached a sufficient quantity, samples were collected for WB identification of the colonies.
(§14) H460 P53 KO cell lines, i.e. H460 P53 KO # 1, H460 P53 KO # 7, H460 P53 KO # 12 cell lines were used in experiments, respectively.
as §6, §5, §7, §1, §2, §3, §4, §8

The next experiment concerns H460 P53 KO #12. The experiment is described as above. Type of experiment: cell-based, human. The settings on record: Homo sapiens, NCI-H460; H460 P53 KO # 12, normoxia, 72 hours; alone or with 3µM AST-3021 as labelled (Example 10). The procedure:
as §9, §10, §11, §12, §13, §14

The next experiment deals with H460 P53 KO #7. The experiment is described as above. The experiment is classed as cell-based, human. The settings on record: Homo sapiens, NCI-H460; H460 P53 KO # 7, normoxia, 72 hours; alone or with 3µM AST-3021 as labelled (Example 10). The procedure: as §9, §10, §11, §12, §13, §14
Experiment [2] concerns H460 cells. Nature of the experiment: Cell cycle G2/M arrest, PI staining flow cytometry. The experiment is classed as cell-based. The procedure: Overview of the experimental process: • 1) H460/HPAF-II cell suspensions were added to a 24-well plate, with a cell density of 100000 /well and 995 µL of medium per well. • 2) The cells were cultured overnight in an incubator at 37°C, 5% CO2. • 3) Compound Treatment
4) The cells were digested, centrifuged at 1000 g at 4°C, washed once with pre-cooled PBS, centrifuged at 1000 g at 4°C, and fixed with 1 mL of pre-cooled 70% ethanol at -20°C overnight.
5) The cells were centrifuged at 3000g at 4°C, washed once with pre-cooled PBS (phosphate buffer), centrifuged at 3000g at 4°C. Prepare PI staining solution. The cells were stained at 37°C away from light for 30 minutes, and stored in an ice bath away from light. Flow cytometric detection was performed on the same day, and the proportion of cells in different cell cycle phases was analyzed using FlowJo.

Broadly, the IC50 is the concentration needed to halve the response being measured. Take `C[C@H](OP(=O)(N1CC1)N1CC1)c1ccc([N+](=O)[O-])c(Oc2cccc(C(=O)N(C)C)c2)c1` [AST-3424]: in the experiment on H460 cells [1] (H460 cells, Nutlin-3 added 2 hours in advance, followed by AST-3424, 72 hours (Figure 1)), the “proliferation inhibition rate of AST-3424” value is on record as “increase significantly”. Further, the IC50 was 0.23 nM in the experiment with H460 cells [1] (H460 WT, normoxia, alone or with 3µM AST-3021 as labelled (Example 10)); 0.43 nM in the experiment with H460 cells [1] (NCI-H460, normoxia, alone or with 3 µM AST-3021 as labelled (Example 13)); 11.3 nM in the experiment with H460 P53 KO #1 (H460 P53 KO # 1, normoxia, alone or with 3µM AST-3021 as labelled (Example 10)); 5.45 nM in the experiment with H460 P53 KO #1 (NCI-H460 P53KO # 1, normoxia, alone or with 3 µM AST-3021 as labelled (Example 13)); 1.99 nM with H460 P53 KO #12; 23.1 nM with H460 P53 KO #7. Also, the “cell cycle (G0/G1, S, G2/M phases)” value with H460 cells [2] (first experiment, 0.1 nM AST-3424, 5 µM Nutlin-3, 24 hours, combination: AST-3424 first (Figure 5)) is on record as “did not significantly alter the cell cycle”. Further, the “G2/M cell cycle arrest” value in the experiment with H460 cells [2] (second experiment, 0.03-1 nM AST-3424, 5 µM Nutlin-3, AST-3424 pre-treatment 2 hours (Figure 6)) is “concentration-dependent G2/M cell cycle arrest”.
